# Where two headings read alike, the source gives them in different places.
# Assays:
# [1] = clinic; cited from earlier work
# [2] = system: Bnip3 protein in hearts of FGF2 mouse strains; conditions: in vivo
# Procedure: Protein (western) immunoblotting. At the end of the in vivo study, hearts were collected, snap frozen in liquid nitrogen, and stored at −80° C. Hearts were powdered with liquid nitrogen using a mortar and pestle prior to being homogenized in 10 mM Tris-HCl pH 7.4, 100 mM NaCl, 300 mM sucrose, 2 mM MgCl2, 1% thiodiglycol, 60 mM B glycerophosphate, 10 mM NaF and an equal volume of 20% glycerol, 100 mM Tris/HCl PH=6.8, and 2% sodium dodecyl sulphate (SDS). All buffers were supplemented (1:100) with protease inhibitor cocktail (Sigma-Aldrich, #8304) and phosphatase inhibitor cocktail set II and IV (Calbiochem, #524625 and #524628). Samples were boiled, sonicated, and centrifuged 15 minutes at 21,000 g to remove cellular debris. Protein concentration was measured by bicinchoninic acid assay. Following SDS-polyacrylamide gel electrophoresis and protein transfer to polyvinylidene fluoride (PVDF) membranes, total protein was stained using 2% Ponceau S (Sigma-Aldrich, P3504) (w/v) in 30% trichloroacetic acid to assess overall protein transfer. Non-specific binding sites were blocked by incubation in 10% milk/TBS-T for 1 hour at room temperature. […]
# Protein extraction and immunoblotting (western blot). […] Protein concentration was measured using the bicinchoninic acid assay from Sigma. […]
# cancer patients = conditions: cited from earlier work
# [3] = system: r-cardiomyocytes co-cultured with human FibiPSC; assay: FibiPSC-cardiomyocyte co-cultures exposed to Dox: cTnT release; assay type: cell-based, rat; conditions: control (IgG) co-cultures with h-FibiPSC; Dox 0.5 μM, 24 h
# Procedure: Fib^iPSC-Cardiomyocyte co-cultures. Cardiomyocytes were plated at a density of 5×10^4 cells/cm^2 on collagen coated plates in the presence of 20% (FBS) in Hams F-10 culture medium. After 24 hours, the media was changed to low serum medium (0.5% FBS, 1% insulin, 1% transferrin/selenium, 1% ascorbic acid, and 1% bovine serum albumin) in Dulbecco's modified Eagle's medium (DMEM). FibiPSC were added to the cultures at a density of 3×10^4/cm^2. Human Hi-FGF2 antibody (Hi-Ab, 20 μg/ml) or non-immune rabbit IgG was added to the culture after 6 hours. The Hi-Ab and rabbit IgG were supplemented in the co-cultures every 24 hours. […] Subsequently, the media was collected and stored at −80° C.
# Protein extraction and immunoblotting (western blot).
# Hi-FGF2 antibody. Anti-Hi-FGF2 antibody (Hi-Ab) against 12 amino acids from the N-terminal section of the Hi-FGF2 “[…]” (SEQ ID NO:1) was made in rabbit and affinity purified by Genscript. Characterization was done as we described previously, for a similar preparation anti-Hi-FGF2 (9). Affinity purified Hi-Ab was used at a concentration of 20 μg/ml in in vitro models.
# [4] = system: FGF2(WT), FGF2(−), FGF2(Hi), FGF2(Lo) mice; assay: In vivo model for acute Doxorubicin effects: mortality and body weight; set-up: species or system mouse; conditions: for effect on body weight: all groups, 10 days post-injection; for Dox-induced mortality: by day 10 post-Dox
# Text: In vivo model for acute cardiotoxic effects. […] Hearts were then collected for biochemical analyses.
# [5] = system: neonatal rat ventricular cardiomyocytes co-cultured with MEFs; assay: MEF-cardiomyocyte co-cultures exposed to Dox: Troponin T release into medium; assay type: cell-based; conditions: Dox 0.5 μM, 24 h
# Procedure: In vitro experiments. Neonatal rat ventricular cardiomyocytes (referred to as ‘cardiomyocytes’) were isolated from 1-2 day old rat pups as previously described (10).
# MEF-Cardiomyocyte co-cultures. Cardiomyocytes were plated at a density of 5×10^4 cells/cm^2 on collagen (Corning, #354236) coated glass coverslips in the presence of 20% fetal bovine serum (FBS) in Hams F-10 culture medium; 24 hours later the media was changed and MEFS from FGF2(WT), FGF2(−), FGF2(Hi), and FGF2(Lo) strains (2×10^4/cm^2) were added to the cultures in low-serum medium (0.5% FBS, 1% insulin, 1% transferrin/selenium, and 1% ascorbic acid) in Dulbecco's modified Eagle's medium (DMEM). […] Conditioned media were collected 24 h later, and stored at −80° C. Cells attached on coverslips were used for the Calcein-AM/Cobalt chloride mPTP assay.
# Primary mouse embryonic fibroblasts (MEFs)-r-cardiomyocyte co-cultures. MEFs were isolated as described (30). R-cardiomyocytes were plated at a density of 5×10^4 cells/cm^2 on collagen (Corning, #354236) coated glass coverslips in the presence of 20% fetal bovine serum (FBS) in Hams F-10 culture medium; 24 hours later the media was changed and MEFS from FGF2(WT) and FGF2(Lo) strains (2×10^4/cm^2) were added to the cultures in low-serum medium (0.5% FBS, 1% insulin, 1% transferrin/selenium, and 1% ascorbic acid) in Dulbecco's modified Eagle's medium (DMEM). […]
substance,measurement,setting,value
infliximab,half life,[1],9.5 days
Doxorubicin,upregulation of cardiac Bnip3 protein versus saline-treated group,[2],1.5 fold
same,incidence of cardiotoxicity,cancer patients; cumulative dose 400 mg/m^2,3-5%
same,incidence of cardiotoxicity,cancer patients; cumulative dose 700 mg/m^2,18-48%
same,cardiomyocyte damage measured by cTnT release,[3],robust cardiomyocyte damage
same,effect on body weight,[4],some weight loss
same,effect on body weight,[4]; listed as Doxorubicin,significantly decreased body weight
same,deaths associated with Dox administration,[4]; female FGF2(WT) and FGF2(Lo) groups,No death
same,Dox-induced mortality,[4]; female FGF2(−) mice,30%
same,post-Dox mortality,[4]; male FGF2(Hi) mice,20%
same,post-Dox mortality,[4]; male FGF2(WT) mice,10%
same,Dox-induced mortality,[4]; male FGF2(−) mice,70%
same,deaths associated with Dox administration,"[4]; males, in either the FGF2(WT) or the FGF2(Lo) group",one death in ten animals
same,deaths post-Dox,[4]; remaining female groups (other than FGF2(−)),No deaths
same,Dox-induced cTnT release,[5]; co-cultures with FGF2(WT) MEFs,observed
same,Dox-induced Tn-T release,"[5]; co-cultures with FGF2(WT), FGF2(−) and FGF2(Hi) MEFs",observed
pertuzumab,half life,[1],18 days

# Reference: US20210040485A1, “Elimination or Neutralization of Endogenous High Molecular Weight FGF-2 Increases Cardiac Resistance to Doxorubicin-Induced Damage” (University of Manitoba, priority 2018, published 2021)
